Target: T1, Mineralocorticoid receptor (Homo sapiens, UniProt P08235)
T1 sequence (P08235 whole entry): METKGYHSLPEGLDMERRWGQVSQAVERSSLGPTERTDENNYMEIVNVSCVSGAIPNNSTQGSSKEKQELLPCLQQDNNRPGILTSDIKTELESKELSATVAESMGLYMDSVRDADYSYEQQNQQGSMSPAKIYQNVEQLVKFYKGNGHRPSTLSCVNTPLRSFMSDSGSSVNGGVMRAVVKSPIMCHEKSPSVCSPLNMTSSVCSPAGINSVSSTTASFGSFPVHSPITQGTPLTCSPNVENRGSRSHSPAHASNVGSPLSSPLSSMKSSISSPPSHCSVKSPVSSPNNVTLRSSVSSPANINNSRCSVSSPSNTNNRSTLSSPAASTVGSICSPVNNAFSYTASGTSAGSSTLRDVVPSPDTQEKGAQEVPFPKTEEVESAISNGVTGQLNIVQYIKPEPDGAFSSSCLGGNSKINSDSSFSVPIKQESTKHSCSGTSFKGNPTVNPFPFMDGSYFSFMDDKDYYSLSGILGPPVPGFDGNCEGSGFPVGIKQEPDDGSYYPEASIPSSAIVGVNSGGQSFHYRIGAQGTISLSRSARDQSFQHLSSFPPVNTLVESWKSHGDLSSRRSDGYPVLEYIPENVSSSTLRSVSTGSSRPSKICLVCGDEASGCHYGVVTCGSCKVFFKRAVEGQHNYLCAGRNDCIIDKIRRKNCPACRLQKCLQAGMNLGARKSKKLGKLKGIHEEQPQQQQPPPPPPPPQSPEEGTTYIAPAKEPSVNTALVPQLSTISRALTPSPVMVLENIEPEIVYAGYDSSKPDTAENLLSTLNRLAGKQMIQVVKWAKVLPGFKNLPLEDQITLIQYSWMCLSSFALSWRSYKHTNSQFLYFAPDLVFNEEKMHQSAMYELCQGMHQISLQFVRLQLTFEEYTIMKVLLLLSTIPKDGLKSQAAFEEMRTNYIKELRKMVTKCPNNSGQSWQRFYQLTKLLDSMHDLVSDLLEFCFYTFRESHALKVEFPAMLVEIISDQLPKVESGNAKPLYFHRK
Experiment: Antagonist activity at human mineralocorticoid receptor assessed as inhibition of binding to coactivator peptide by NH Pro assay

| SMILES | IC50 [nM] |
| --- | --- |
| COc1cc(CNC(=O)[C@@]2(Cc3ccc4nonc4c3)OC(=O)N([C@H](C)c3ccccc3)C2=O)cc(OC)c1 | > 40000 |
| COc1cc(CNC(=O)[C@@]2(Cc3ccccc3)OC(=O)N([C@H](C)C3CCCCC3)C2=O)cc(OC)c1 | 14 |
| COc1cc(CNC(=O)[C@@]2(Cc3ccccc3)OC(=O)N(C3CCN(C(=O)C(F)(F)F)CC3)C2=O)cc(OC)c1 | 2900 |
| C[C@H](c1ccccc1)N1C(=O)O[C@](Cc2ccccc2)(C(=O)N2CCc3ccccc3C2)C1=O | 340 |
| C[C@H](c1ccccc1)N1C(=O)N[C@](Cc2ccccc2)(C(=O)N2CCc3ccccc3C2)C1=O | 990 |
| COc1cccc(CNC(=O)[C@@]2(Cc3ccccc3)OC(=O)N(Cc3ccccc3)C2=O)c1 | 1000 |
| COc1ccccc1CNC(=O)[C@@]1(Cc2ccccc2)OC(=O)N([C@H](C)c2ccccc2)C1=O | 500 |
| C[C@H](c1ccccc1)N1C(=O)O[C@](Cc2ccccc2)(C(=O)NCc2ccc(Cl)cc2)C1=O | 200 |
| C[C@H](c1ccccc1)N1C(=O)O[C@](Cc2ccccc2)(C(=O)NCc2cccc(Cl)c2)C1=O | 280 |
| C[C@H](c1ccccc1)N1C(=O)O[C@](Cc2ccccc2)(C(=O)N[C@H](C)c2cccc(Cl)c2)C1=O | 400 |
| C[C@H](NC(=O)[C@@]1(Cc2ccccc2)OC(=O)N([C@H](C)c2ccccc2)C1=O)c1cccc(Cl)c1 | 2600 |
| C[C@H](c1ccccc1)N1C(=O)O[C@](Cc2ccccc2)(C(=O)NCc2ccc(C(F)(F)F)cc2)C1=O | 570 |
| C[C@H](c1ccccc1)N1C(=O)O[C@](Cc2ccccc2)(C(=O)NCc2cccc(C(F)(F)F)c2)C1=O | 500 |
| C[C@H](c1ccccc1)N1C(=O)O[C@](Cc2ccccc2)(C(=O)NCc2ccc(S(C)(=O)=O)cc2)C1=O | > 10000 |
| C[C@H](c1ccccc1)N1C(=O)O[C@](Cc2ccccc2)(C(=O)NCc2cccc(S(C)(=O)=O)c2)C1=O | 3000 |
| C[C@H](c1ccccc1)N1C(=O)O[C@](Cc2ccccc2)(C(=O)Nc2ccc3ccccc3c2)C1=O | 600 |
| C[C@H](c1ccc(F)cc1)N1C(=O)O[C@](Cc2ccccc2)(C(=O)Nc2ccccc2)C1=O | 270 |
| C[C@H](c1ccc(F)cc1)N1C(=O)O[C@](Cc2ccccc2)(C(=O)Nc2ccc(Cl)cc2)C1=O | 180 |
| C[C@H](c1ccccc1)N1C(=O)O[C@](Cc2ccccc2)(C(=O)Nc2cccc(Cl)c2)C1=O | 2000 |
| C[C@H](c1ccccc1)N1C(=O)O[C@](Cc2ccccc2)(C(=O)Nc2ccccc2Cl)C1=O | 1000 |
| C[C@H](c1ccccc1)N1C(=O)O[C@](Cc2ccccc2)(C(=O)Nc2ccc(F)cc2)C1=O | 100 |
| C[C@H](c1ccccc1)N1C(=O)O[C@](Cc2ccccc2)(C(=O)Nc2cccc(F)c2)C1=O | 300 |

| SMILES | IC50 [nM] |
| --- | --- |
| C[C@H](c1ccccc1)N1C(=O)O[C@](Cc2ccccc2)(C(=O)Nc2ccc(C#N)cc2)C1=O | 100 |
| C[C@H](c1ccccc1)N1C(=O)O[C@](Cc2ccccc2)(C(=O)NC2CCCCC2)C1=O | 4000 |
| C[C@H](c1ccccc1)N1C(=O)O[C@](Cc2ccccc2)(C(=O)NC2CCC2)C1=O | 1200 |
| C[C@H](c1ccccc1)N1C(=O)O[C@](Cc2ccccc2)(C(=O)NC2CC2)C1=O | 2000 |
| C[C@H](c1ccccc1)N1C(=O)O[C@](Cc2ccccc2)(C(=O)N[C@H]2C[C@@H](c3ccccc3)C2)C1=O | 650 |
| C[C@H](c1ccccc1)N1C(=O)O[C@](Cc2ccccc2)(C(=O)N[C@H]2C[C@H](c3ccccc3)C2)C1=O | 190 |
| C[C@H](c1ccccc1)N1C(=O)O[C@](Cc2ccccc2)(C(=O)N[C@@H]2C[C@H]2c2ccccc2)C1=O | 250 |
| Cc1cc(CNC(=O)[C@@]2(Cc3ccccc3)OC(=O)N([C@H](C)c3ccccc3)C2=O)on1 | 3000 |
| CCn1cc(CNC(=O)[C@@]2(Cc3ccccc3)OC(=O)N([C@H](C)c3ccccc3)C2=O)cn1 | > 10000 |
| C[C@H](c1ccccc1)N1C(=O)O[C@](Cc2ccccc2)(C(=O)NCc2ccncc2)C1=O | > 40000 |
| C[C@H](c1ccccc1)N1C(=O)O[C@](Cc2ccccc2)(C(=O)NCc2cccnc2)C1=O | 13000 |
| C[C@H](c1ccccc1)N1C(=O)O[C@](Cc2ccccc2)(C(=O)NCc2ccccn2)C1=O | 16000 |
| O=C1O[C@](Cc2ccccc2)(C(=O)NCc2nccs2)C(=O)N1Cc1ccccc1 | > 40000 |
| C[C@H](c1ccccc1)N1C(=O)O[C@](Cc2ccccc2)(C(=O)NCc2ccc3ccccc3n2)C1=O | 2500 |
| C[C@H](c1ccccc1)N1C(=O)O[C@](Cc2ccccc2)(C(=O)NCc2ccc3cnccc3c2)C1=O | 1500 |
| C[C@H](c1ccccc1)N1C(=O)O[C@](Cc2ccccc2)(C(=O)NCc2cccc3cnccc23)C1=O | 3000 |
| C[C@H](c1ccccc1)N1C(=O)O[C@](Cc2ccccc2)(C(=O)NCc2cccc3ccnn23)C1=O | 300 |
| C[C@H](c1ccccc1)N1C(=O)O[C@](Cc2ccccc2)(C(=O)NCCc2ccncc2)C1=O | 4000 |
| C[C@H](c1ccccc1)N1C(=O)O[C@](Cc2ccccc2)(C(=O)NCCc2ccccn2)C1=O | 15000 |
| C[C@H](c1ccccc1)N1C(=O)O[C@](Cc2ccccc2)(C(=O)NCCc2nnc[nH]2)C1=O | > 40000 |
| C[C@H](c1ccccc1)N1C(=O)O[C@](Cc2ccccc2)(C(=O)NCCc2cn[nH]c2)C1=O | > 40000 |
| COc1cc(CNC(=O)[C@H]2OC(=O)N(Cc3ccccc3)C2=O)cc(OC)c1 | > 40000 |

Other lines, results leading:

| IC50 [nM] | SMILES |
| --- | --- |
| > 40000 | COc1cc(CNC(=O)[C@@]2(Cc3ccc(Cl)cc3)OC(=O)N([C@H](C)c3ccccc3)C2=O)cc(OC)c1 |
| 750 | COc1cc(CNC(=O)[C@@]2(Cc3cccc(Cl)c3)OC(=O)N([C@H](C)c3ccccc3)C2=O)cc(OC)c1 |
| 450 | COc1cc(CNC(=O)[C@@]2(Cc3ccccc3Cl)OC(=O)N([C@H](C)c3ccccc3)C2=O)cc(OC)c1 |
| > 40000 | COc1cc(CNC(=O)[C@@]2(Cc3ccc4ccccc4c3)OC(=O)N([C@H](C)c3ccccc3)C2=O)cc(OC)c1 |
| > 40000 | COc1cc(CNC(=O)[C@@]2(Cc3cccc4nonc34)OC(=O)N([C@H](C)c3ccccc3)C2=O)cc(OC)c1 |
| 500 | COc1cc(CNC(=O)[C@@]2(Cc3ccccc3)OC(=O)N(C(C)C)C2=O)cc(OC)c1 |
| 500 | COc1cc(CNC(=O)[C@@]2(Cc3ccccc3)OC(=O)N([C@@H](C)c3ccccc3)C2=O)cc(OC)c1 |
| 37 | COc1cc(CNC(=O)[C@@]2(Cc3ccccc3)OC(=O)N([C@H](C)c3ccc(F)cc3)C2=O)cc(OC)c1 |
| 55 | COc1cc(CNC(=O)[C@@]2(Cc3ccccc3)OC(=O)N([C@H](C)c3ccc(Cl)cc3)C2=O)cc(OC)c1 |
| 170 | COc1cc(CNC(=O)[C@@]2(Cc3ccccc3)OC(=O)N(C3CCCc4ccccc43)C2=O)cc(OC)c1 (stereo not given in full) |
| 400 | CC[C@H](c1ccccc1)N1C(=O)O[C@](Cc2ccccc2)(C(=O)NCc2cc(OC)cc(OC)c2)C1=O |
| > 40000 | COc1cc(CNC(=O)[C@@]2(Cc3ccccc3)NC(=O)N(Cc3ccccc3)C2=O)cc(OC)c1 |
| > 40000 | COc1cc(CNC(=O)[C@]2(Cc3ccccc3)C(=O)N(Cc3ccccc3)C(=O)N2C)cc(OC)c1 |
| > 40000 | COc1cc(CNC(=O)C2(Cc3ccccc3)CN(Cc3ccccc3)C(=O)N2)cc(OC)c1 (stereo not given) |
| > 40000 | COc1cc(CNC(=O)C2(Cc3ccccc3)CCN(Cc3ccccc3)C2)cc(OC)c1 (stereo not given) |
| > 40000 | COc1cc(CNC(=O)C2(Cc3ccccc3)CC(=O)N([C@H](C)c3ccccc3)C2=O)cc(OC)c1 (stereo not given in full) |
| > 10000 | COc1cc(CNC(=O)C2(Cc3ccccc3)CCN([C@H](C)c3ccccc3)C2=O)cc(OC)c1 (stereo not given in full) |
| > 40000 | COc1cc(CNC(=O)C2(Cc3ccccc3)CN(Cc3ccccc3)C(=O)O2)cc(OC)c1 (stereo not given) |
| 300 | COc1cccc(CNC(=O)[C@@]2(Cc3ccccc3)OC(=O)N([C@H](C)c3ccccc3)C2=O)c1 |
| 1000 | COc1ccc(CNC(=O)[C@@]2(Cc3ccccc3)OC(=O)N([C@H](C)c3ccccc3)C2=O)cc1 |
| 3000 | COc1cc(CNC(=O)[C@@]2(Cc3ccccc3)OC(=O)N(Cc3ccccc3)C2=O)cc(OC)c1 |
| 30000 | COc1cc(CNC(=O)[C@@]2(Cc3ccncc3)OC(=O)N(Cc3ccccc3)C2=O)cc(OC)c1 |
| 3000 | COc1cc(CNC(=O)[C@@]2(Cc3ccccn3)OC(=O)N([C@H](C)c3ccccc3)C2=O)cc(OC)c1 |
| 200 | COc1cc(CNC(=O)[C@@]2(Cc3ccc(F)cc3)OC(=O)N([C@H](C)c3ccccc3)C2=O)cc(OC)c1 |
| 280 | COc1cc(CNC(=O)[C@@]2(Cc3cccc(F)c3)OC(=O)N([C@H](C)c3ccccc3)C2=O)cc(OC)c1 |
| 300 | COc1cc(CNC(=O)[C@@]2(Cc3ccccc3F)OC(=O)N([C@H](C)c3ccccc3)C2=O)cc(OC)c1 |

Source: ChEMBL document CHEMBL2407028, “Discovery of novel oxazolidinedione derivatives as potent and selective mineralocorticoid receptor antagonists” (Bioorg Med Chem Lett, 2013)
